Measurements as given in ChEMBL document CHEMBL4818987, “Recent advances of podophyllotoxin/epipodophyllotoxin hybrids in anticancer activity, mode of action, and structure-activity relationship: An update (2010-2020)” (Eur J Med Chem, 2020).

Columns and labels:
HeLa [1] = assay: Potency index, ratio of etoposide IC50 to test compound IC50 for antiproliferative activity against human HeLa cells; type: functional
MGC-803 [2] = assay: Potency index, ratio of etoposide IC50 to test compound IC50 for antiproliferative activity against human MGC-803 cells; type: functional
HepG2 [3] = assay: Potency index, ratio of etoposide IC50 to test compound IC50 for antiproliferative activity against human HepG2 cells; type: functional
BGC-823 [4] = assay: Potency index, ratio of etoposide IC50 to test compound IC50 for antiproliferative activity against human BGC-823 cells; type: functional
K562/A02 [5] = assay: Potency index, ratio of etoposide IC50 to test compound IC50 for antiproliferative activity against human K562/A02 cells; type: functional
K562 [6] = assay: Potency index, ratio of etoposide IC50 to test compound IC50 for antiproliferative activity against human K562 cells; type: functional
A549 [7] = assay: Potency index, ratio of etoposide IC50 to test compound IC50 for antiproliferative activity against human A549 cells; type: functional
SK-OV-3 [8] = assay: Potency index, ratio of etoposide IC50 to test compound IC50 for antiproliferative activity against human SK-OV-3 cells; type: functional
MCF7 [9] = assay: Potency index, ratio of etoposide IC50 to test compound IC50 for antiproliferative activity against human MCF7 cells; type: functional
HepG2 [10] = assay: Antiproliferative activity against human HepG2 cells incubated for 48 hrs by MTT assay; type: functional, cell-based; details: HepG2, 48 h
HepG2 [11] = assay: Antitumor activity against human HepG2 cells xenografted in BALB/c nude mouse assessed as tumor weight suppression at 1 mg/kg, ip administered every 6 days for 20 days and measured every 2 days by digital caliper method relative to control; type: functional, organism-based; details: time 20 day
[12] = Antiproliferative activity against human HCCLM3 cells incubated for 48 hrs by MTT assay; type: functional, cell-based; details: HCCLM3, 48 h
SMMC-7721 = assay: Antiproliferative activity against human SMMC-7721 cells incubated for 48 hrs by MTT assay; type: functional, cell-based; details: SMMC-7721, 48 h
[13] = Plasma clearance in Sprague-Dawley rat at 2.5 mg/kg, iv measured after 5 to 1440 mins by LC-MS/MS analysis; type: ADME, organism-based; set-up: dose 2.5 mg/kg, time upper 1440 min, time lower 5 min; details: 2.5 mg/kg
HepG2 [14] = assay: Antiproliferative activity against human HepG2 cells incubated for 48 to 72 hrs by MTT assay; type: functional, cell-based
K562 [15] = assay: Antiproliferative activity against human K562 cells incubated for 48 hrs by MTT assay; type: functional, cell-based; details: K562, 48 h
HOS = assay: Cytotoxicity against human HOS cells by MTT assay; type: functional
MKN-45 [16] = assay: Antiproliferative activity against human MKN-45 cells incubated for 48 to 72 hrs by MTT assay; type: functional, cell-based
BGC-823 [17] = assay: Antiproliferative activity against human BGC-823 cells incubated for 72 hrs by MTT assay; type: functional, cell-based; details: BGC-823, 72 h
[18] = AUCinfinity in Sprague-Dawley rat at 2.5 mg/kg, iv measured after 5 to 1440 mins by LC-MS/MS analysis; type: ADME, organism-based; set-up: route intravenous, dose 2.5 mg/kg, time upper 1440 min, time lower 5 min; details: in vivo, time 5-1440 min, dose 2.5 mg/kg
[19] = Mean initial plasma concentration in Sprague-Dawley rat at 2.5 mg/kg, iv measured after 5 to 1440 mins by LC-MS/MS analysis; type: ADME, organism-based; details: Rattus norvegicus
KB [20] = assay: Cytotoxicity against human Vincristine-resistant KB cells incubated for 72 hrs by SRB method; type: functional, cell-based
HeLa [21] = assay: Antiproliferative activity against human HeLa cells by MTT assay; type: functional, cell-based
LoVo = assay: Cytotoxicity against human LoVo cells by MTT assay; type: functional, cell-based
HCT-116 = assay: Antiproliferative activity against human HCT116 cells incubated for 3 days by MTT assay; type: functional, cell-based; details: HCT-116, 72 h
HeLa [22] = assay: Antiproliferative activity against human HeLa cells incubated for 48 hrs by MTT assay; type: functional, cell-based
HeLa [23] = assay: Cytotoxicity against human HeLa cells by MTT assay; type: functional, cell-based
BGC-823 [24] = assay: Antiproliferative activity against human BGC-823 cells incubated for 48 hrs by MTT assay; type: functional, cell-based; details: BGC-823, 48 h
A549 [25] = assay: Antiproliferative activity against human A549 cells incubated for 3 days by MTT assay; type: functional, cell-based; details: A549, 72 h
K562 [26] = assay: Antiproliferative activity against human K562 cells by MTT assay; type: functional, cell-based
K562/Adr = assay: Antiproliferative activity against human K562/ADR cells incubated for 72 hrs by CCK8 assay; type: functional, cell-based
B16 = assay: Antiproliferative activity against […] cells incubated for 48 to 72 hrs by MTT assay; type: functional, cell-based; details: Mus musculus
K562 [27] = assay: Antiproliferative activity against human K562 cells incubated for 72 hrs by CCK8 assay; type: functional, cell-based; details: K562, 72 h
KB [28] = assay: Cytotoxicity against human KB cells incubated for 72 hrs by SRB method; type: functional, cell-based
KB [29] = assay: Cytotoxicity against human KB cells by MTT assay; type: functional, cell-based
MKN-45 [30] = assay: Antiproliferative activity against human MKN-45 cells incubated for 72 hrs by MTT assay; type: functional, cell-based; details: time 72 hrs
[31] = Cytotoxicity against human KBv200 cells by MTT assay; type: functional, cell-based; details: KBv200, Uterine cervix
HL-60 = assay: Antiproliferative activity against human HL-60 cells incubated for 48 hrs by MTT assay; type: functional, cell-based; details: HL-60, 48 h
MCF7 [32] = assay: Cytotoxicity against human MCF7 cells by MTT assay; type: functional, cell-based
SK-OV-3 [33] = assay: Antiproliferative activity against human SKOV3 cells incubated for 48 hrs by MTT assay; type: functional, cell-based; details: SK-OV-3, 48 h
NCI-H1993 = assay: Antiproliferative activity against human NCI-H1993 cells incubated for 48 to 72 hrs by MTT assay; type: functional, cell-based
K562/A02 [34] = assay: Antiproliferative activity against human K562/A02 cells by MTT assay; type: functional, cell-based
SW480 = assay: Antiproliferative activity against human SW480 cells incubated for 48 hrs by MTT assay; type: functional, cell-based; details: SW480, 48 h
A549 [35] = assay: Antiproliferative activity against human A549 cells incubated for 48 hrs by MTT assay; type: functional, cell-based; details: A549, 48 h
MGC-803 [36] = assay: Antiproliferative activity against human MGC-803 cells incubated for 48 hrs by MTT assay; type: functional, cell-based; details: MGC-803, 48 h
K562 [37] = assay: Antiproliferative activity against human K562 cells incubated for 72 hrs by CCK8 method; type: functional, cell-based; details: K562, 72 h
MCF7 [38] = assay: Antiproliferative activity against human MCF7 cells incubated for 48 hrs by MTT assay; type: functional, cell-based; details: MCF7, 48 h
K562 [39] = assay: Cytotoxicity against human K562 cells by SRB assay; type: functional, cell-based
K562/A02 [40] = assay: Cytotoxicity against human K562/A02 cells by SRB assay; type: functional, cell-based

For `COc1cc([C@@H]2c3cc4c(cc3[C@@H](n3ccnc3)[C@H]3COC(=O)[C@H]23)OCO4)cc(OC)c1OC`, the “Ratio IC50” value (HeLa [1]) was 5.8, the “Ratio IC50” value (MGC-803 [2]) was 5.8 and the “Ratio IC50” value (HepG2 [3]) was 5.8. For the same compound, the “Ratio IC50” value (BGC-823 [4]) was 5.8, the “Ratio IC50” value (K562/A02 [5]) was 5.8 and the “Ratio IC50” value (K562 [6]) was 5.8. For the same compound, the “Ratio IC50” value (A549 [7]) was 5.8, the “Ratio IC50” value (SK-OV-3 [8]) was 5.8 and the “Ratio IC50” value (MCF7 [9]) was 5.8.
In the case of `COc1cc([C@@H]2c3cc4c(cc3[C@@H](OC(=O)CCSC(=S)N/N=C/c3ccccn3)[C@H]3COC(=O)[C@H]23)OCO4)cc(OC)c1O`, the IC50 (HepG2 [10]) is reported as 3890 nM, the Activity (HepG2 [11]) is reported as 93.8% and the IC50 [12] is reported as 11000 nM.
With `COc1cc([C@@H]2c3cc4c(cc3[C@@H](O[C@@H]3O[C@@H]5CO[C@@H](C)O[C@H]5[C@H](O)[C@H]3O)[C@H]3COC(=O)[C@H]23)OCO4)cc(OC)c1O` [ETOPOSIDE] the IC50 (SMMC-7721) was 310 nM, the AUC [13] was 933 ng·h/mL and the IC50 (HepG2 [14]) was > 910 nM. The IC50 (K562 [15]) was 183 nM, the GI50 (HOS) was 36600 nM and the IC50 (MKN-45 [16]) was > 910 nM. The IC50 (BGC-823 [17]) was 2880 nM, the AUC [18] was 3180 ng·h/mL and the C0 [19] was 16.8 µM. The IC50 (KB [20]) was 2270 nM, the IC50 (HepG2 [10]) was 310 nM and the IC50 (HeLa [21]) was 310 nM. The IC50 (LoVo) was 1710 nM, the IC50 (HCT-116) was 4900 nM and the IC50 (HeLa [22]) was 8120 nM. For the same compound, the IC50 (HeLa [23]) was 1710 nM, the IC50 (BGC-823 [24]) was 1060 nM and the IC50 (A549 [25]) was 4900 nM. For the same compound, the IC50 (K562 [26]) was 22800 nM, the IC50 (K562/Adr) was 413 nM and the IC50 (B16) was > 910 nM. The IC50 (K562 [27]) was 3390 nM, the IC50 (KB [28]) was 1740 nM and the IC50 (KB [29]) was 1710 nM. The Activity (MKN-45 [30]) was 12.8%, the IC50 [31] was 1710 nM and the IC50 (HL-60) was 310 nM. The IC50 (MCF7 [32]) was 1710 nM, the IC50 (SK-OV-3 [33]) was 14800 nM and the IC50 (NCI-H1993) was > 910 nM. The IC50 (K562/A02 [34]) was 1980 nM, the IC50 (SW480) was 764 nM and the IC50 (A549 [35]) was 1060 nM. It also gave an IC50 (MGC-803 [36]) of 1060 nM, an IC50 (K562 [37]) of 1060 nM and an IC50 (MCF7 [38]) of 310 nM. For the same compound, the IC50 (K562 [39]) was 1980 nM and the GI50 (K562/A02 [40]) was 1080 nM.
